What all share (format): cell-based
For series [1], the system named is RAW 264.7 murine macrophage-like cells. Briefly: Cell cytotoxicity, MTT assay. The note with it: for Cytotoxicity, MTT assay: RAW264.7 cells, sample 512 µg.mL^−1, 24 h, mean ± S.D., three independent experiments; for cell viability: RAW264.7, even at higher concentrations. How it is done:
Sterile filtered MTT (3-(4,5-dimethylthiazolyl)-2,5-diphenyl-tetrazoliumbromide; Sigma-Aldrich, USA) solution (5 mg.mL^−1 in PBS) was dark stored at −20°C. RAW 264.7 murine macrophage-like cells, 1×10^5 cells/well was seeded in 96 well plates (TPP, Switzerland), in supplemented DMEM medium (4 mM glutamine, 10% FCS and 100 units.ml^−1 penicillin/streptomycin) containing multiple treatments. Treatments consisted of fractions F-44, F-51, F-68, BmLAO (0–512 µg.mL^−1) and fragments BmLAO-f1, BmLAO-f2 and BmLAO-f3 at different concentrations (0–500 µM). After overnight incubation, 60% of medium was then removed, and 10 µl of the MTT solution was added to each well; the plates were then incubated for 4 h in the presence of 5% CO2 at 37°C. The blue formazan product generated was dissolved by the addition of 100 µl of 100% DMSO (Mallinckrodt Chemical) per well. The plates were then gently swirled for 5 min at room temperature in order to dissolve the precipitate. The absorbance was monitored at 575 nm in a Biotek Powerwave HT microplate spectrophotometer (Bio-Tek Instruments, USA).
Background: Formazan colour is commonly taken as a measure of viable cells.

In a further series the test system is human erythrocytes. Briefly: Hemolysis assay. The note with it: for haemolysis: even at higher concentrations; for Cytotoxicity, Hemolysis assay: sample 512 µg.mL^−1, 24 h by the footnote (method: 1 h, 37°C), relative to 0.1% triton X-100, OD 540 nm, mean ± S.D., three independent experiments. How it is done: Human heparine-blood was obtained from the Universidade Católica de Brasilia cell collection. Collection was obtained with written informed consent. Heparine blood cells were centrifuged at 800 g for 10 min. The erythrocytes were washed three times and re-suspended in 0.1% PBS, pH 7.4. […] The positive control was 0.1% triton X-100 (Sigma-Aldrich, USA). The samples were then centrifuged at 800 g for 10 min. The optical density at 540 nm of the supernatant was measured. The relative optical density compared to that of the suspension treated with 0.1% triton X-100 defined hemolysis percent.

Series [2] concerns Streptococcus pyogenes (ATCC19615). Briefly: MIC determination, broth dilution. The settings on record: fragments, first figure of the cell (µM/µg.mL^−1); Mueller-Hinton broth, 37°C, 12 h; 100% growth inhibition. How it is done:
(§1) The minimal inhibitory concentration (MIC) was determined using a standardized dilution method according to NCSLA guidelines. Overnight colonies of Bacillus subtilis (ATCC 6633), Enterococcus faecalis (ATCC 12953), Staphylococcus aureus (ATCC29213), Streptococcus pyogenes (ATCC19615), Escherichia coli (ATCC8739), Klebsiella pneumonia (ATCC13885), Proteus mirabilis (ATCC25933), Pseudomonas aeruginosa ATCC 15442 and Salmonella typhimurium (ATCC14028) were suspended to a turbidity of 0.5 units and further diluted in Mueller-Hinton broth (MH) (Himedia - India). […] Ten microliters of each concentration was added to each corresponding well of a 96-well plate (TPP, Switzerland) and 1×10^5 bacteria in the volume of 90 µL. The plate was incubated at 37°C for 12 h.
A general note: Dilution methods test growth across graded concentrations, often in twofold steps.

For series [3], the system named is Pseudomonas aeruginosa (ATCC15442). Briefly: MIC determination, broth dilution. The note with it: fragments, first figure of the cell (µM/µg.mL^−1); Mueller-Hinton broth, 37°C, 12 h; 100% growth inhibition. How it is done: as §1
Series [4] has as its system Escherichia coli (ATCC8739). Briefly: MIC determination, broth dilution. The settings on record: fragments, first figure of the cell (µM/µg.mL^−1); Mueller-Hinton broth, 37°C, 12 h; 100% growth inhibition. How it is done: as §1
Series [5] relates to Bacillus subtilis (ATCC 6633). Put plainly: MIC determination, broth dilution. The settings on record: fragments, first figure of the cell (µM/µg.mL^−1); Mueller-Hinton broth, 37°C, 12 h; 100% growth inhibition. The protocol: as §1
The subject of series [6] is Staphylococcus aureus (ATCC29213). Put plainly: MIC determination, broth dilution. The note with it: fragments, first figure of the cell (µM/µg.mL^−1); Mueller-Hinton broth, 37°C, 12 h; 100% growth inhibition. How it is done:
as §1

For series [7], the system named is Klebsiella pneumoniae (ATCC13885). Put plainly: MIC determination, broth dilution. The settings on record: fragments, first figure of the cell (µM/µg.mL^−1); Mueller-Hinton broth, 37°C, 12 h; 100% growth inhibition. The protocol:
as §1

Series [8] relates to Salmonella typhimurium (ATCC14028). Put plainly: MIC determination, broth dilution. The note with it: fragments, first figure of the cell (µM/µg.mL^−1); Mueller-Hinton broth, 37°C, 12 h; 100% growth inhibition. How it is done:
as §1

Series [9] has as its system Enterococcus faecalis (ATCC 12953). Briefly: MIC determination, broth dilution. The settings on record: fragments, first figure of the cell (µM/µg.mL^−1); Mueller-Hinton broth, 37°C, 12 h; 100% growth inhibition. How it is done:
as §1

Series [10] deals with Proteus mirabilis (ATCC25933). Briefly: MIC determination, broth dilution. The settings on record: fragments, first figure of the cell (µM/µg.mL^−1); Mueller-Hinton broth, 37°C, 12 h; 100% growth inhibition. The protocol: as §1

Ends that are not written are not given here.

Consider IKFEPPLPPKKAH-NH2 [BmLAO-f1], for which, in series [1], the “Cytotoxicity, MTT assay” value is on record as 21.0±3.5 % of control. Besides, the haemolysis entry in the series with human erythrocytes is given as “less than 25%”. Further, in the series on human erythrocytes, the “Cytotoxicity, Hemolysis assay” value is 13.75±3.6 % of control. For the same substance, the MIC in [2] was found to be 43 µM; in [3], 22 µM; in series [4] it was 22 µM; in series [5] it was 43 µM; in series [6], 43 µM; in series [7], 22 µM. For the same substance, the minimal inhibitory concentration (MIC) in [8], in [9] and in [10] was 43 µM throughout.

On to KKFWEDDG-NH2 [BmLAO-f2], for which, in series [1], the cell viability entry was “over 78%”. For the same substance, the “Cytotoxicity, MTT assay” value in series [1] is on record as 13.6±4.5 % of control. Besides, the haemolysis result in the series with human erythrocytes is given as “less than 25%”. Moreover, the “Cytotoxicity, Hemolysis assay” value with human erythrocytes is 11.32±2.9 % of control. For the same substance, the MIC turned out to be 125 µM in [2]; 250 µM in [3]; 250 µM in [4]; 250 µM in series [5]; 250 µM in series [6]; 125 µM in series [7]. In addition, the MIC in [9] and in [10] was 125 µM throughout.

Turning to IYYPPNHNFP-NH2 [BmLAO-f3], the cell viability entry in [1] is listed as “over 78%”. Further, in [1], the “Cytotoxicity, MTT assay” value was 11.2±2.1 % of control. Further, the haemolysis entry in the series on human erythrocytes is given as “less than 25%”. Also, the “Cytotoxicity, Hemolysis assay” value in the series with human erythrocytes is on record as 9.87±3.1 % of control. Moreover, the minimum inhibitory concentration (MIC) in series [2] was determined as 110 µM; in series [3], 220 µM; in series [4], 220 µM; in [5] it was 220 µM; in series [6] it was 220 µM; in series [7] it was 110 µM. The results for the minimum inhibitory concentration (MIC) in [8], in series [9] and in series [10] were 220 µM, 110 µM and 110 µM, respectively.

The term MIC denotes the smallest concentration in the dilution series that meets the test's criterion for growth inhibition.

The values above are taken from publication PMC3306279, “Evaluation of an Antimicrobial L-Amino Acid Oxidase and Peptide Derivatives from Bothropoides mattogrosensis Pitviper Venom” (PLoS ONE, 2012).
